The source of these data is patent publication US20090143471A1, “Process for the Atomization of Ioxilan” (GUERBET, priority 2006, published 2009).

Molecules are shown by their SMILES.

The data set can be described thus: immediate solubility in water. The data set is classed as physicochemical. To be noted: ambient or moderate temperature (typically from 20 to 40° C.). The procedure: Another disadvantage of the prior process by crystallization was that, in order to obtain an appropriate concentration of active principle in the contrast agent, the dissolution of the crystalline compound B1 (solid crystalline ioxilan, denoted B1; compound B of FIG. 1 is compound B1) required heating at high temperature (80° C.). This is because the immediate solubility of B1 in water at ambient or moderate temperature (typically from 20 to 40° C.) was of the order of 50 mg of iodine/ml.
The atomized compound B2 is soluble at ambient or moderate temperature. It is possible, starting from the compound B2, to obtain an appropriate pharmaceutical solution without needing to heat at high temperature. The immediate solubility of B2 in water at ambient or moderate temperature, of the order of at least 500 mg of iodine/ml and typically of approximately 500 mg of iodine/ml, makes it possible to obtain an injected contrast agent having a concentration of 350 to 450 mg of iodine/ml, for example 350, 380 or 400 mg of iodine/ml.

Take `CC(=O)N(CC(O)CO)c1c(I)c(C(=O)NCCO)c(I)c(C(=O)NCC(O)CO)c1I` (stereo not shown) [B1, 5-[N-(2,3-dihydroxypropyl)acetamido]-2,4,6-triiodo-N-(2,3-dihydroxypropyl)-N′-(2-hydroxyethyl)isophthalamide]: the “immediate solubility in water” value is recorded as ~50 mg of iodine/ml.
